Values joined by “and” are separate entries in the source; they are usually repeats but may differ in a detail not shown here. Equal entries are not always repeated.
Assays:
FAP = FAP (Homo sapiens (Human), UniProt Q12884); experiment: FAP inhibition assay (recombinant enzyme, Z-Gly-Pro-AMC substrate); format: biochemical; settings: Table 3; for Ki: read-out: FAP Ki
Protocol: (§1) PSMA binding affinities of the compounds were determined using a competitive inhibition assay as previously reported. […] FAP, prolyl endopeptidase (PREP), and […] (DPPIV) inhibition assays: Recombinant enzymes (FAP, PREP, DPPIV) were purchased from R&D Systems (Minneapolis, MN). […] Z-Gly-Pro-AMC was used as a substrate for FAP and PREP. H-Gly-Pro-AMC was used as a substrate for DPPIV. The recombinant enzyme (0.4 μg/mL) was incubated with varying amounts of the test articles in the presence of the designated substrate (80 μM) for 10 min at room temperature. Fluorescence intensity was measured with 380 nm excitation and 460 nm emission using the Cytation 5 Cell Imaging Multi-Mode Reader (BioTek, Winooski, VT). IC50 and Ki values were obtained using a sigmoidal dose-response function.

PREP = PREP (Homo sapiens (Human), UniProt P48147); experiment: PREP inhibition assay (recombinant enzyme, Z-Gly-Pro-AMC substrate); format: biochemical; settings: Table 3
Chain of PREP (P48147 whole entry): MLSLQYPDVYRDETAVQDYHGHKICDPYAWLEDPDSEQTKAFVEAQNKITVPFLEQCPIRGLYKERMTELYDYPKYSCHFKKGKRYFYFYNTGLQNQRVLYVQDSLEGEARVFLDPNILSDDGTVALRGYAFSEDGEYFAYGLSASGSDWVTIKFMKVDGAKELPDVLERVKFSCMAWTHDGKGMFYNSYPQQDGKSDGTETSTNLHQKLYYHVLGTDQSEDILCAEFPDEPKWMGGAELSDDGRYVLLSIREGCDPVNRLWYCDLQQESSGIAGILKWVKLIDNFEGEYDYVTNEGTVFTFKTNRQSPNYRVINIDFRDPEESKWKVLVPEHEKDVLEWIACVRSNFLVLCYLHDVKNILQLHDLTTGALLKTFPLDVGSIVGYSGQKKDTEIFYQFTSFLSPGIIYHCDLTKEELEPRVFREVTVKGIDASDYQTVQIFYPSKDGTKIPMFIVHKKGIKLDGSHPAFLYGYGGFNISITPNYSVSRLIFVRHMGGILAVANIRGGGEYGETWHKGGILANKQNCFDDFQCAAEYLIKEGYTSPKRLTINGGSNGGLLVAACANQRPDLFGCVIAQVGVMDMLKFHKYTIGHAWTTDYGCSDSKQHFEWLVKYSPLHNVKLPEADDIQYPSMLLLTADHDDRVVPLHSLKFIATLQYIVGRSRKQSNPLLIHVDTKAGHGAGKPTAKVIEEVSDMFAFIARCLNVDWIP
Protocol: as §1

DPPIV = DPPIV (Homo sapiens (Human), UniProt P27487); experiment: DPPIV inhibition assay (recombinant enzyme, H-Gly-Pro-AMC substrate); format: biochemical; settings: for IC50: Table 3, read-out: DPPIV IC50
Chain of DPPIV (P27487 whole entry): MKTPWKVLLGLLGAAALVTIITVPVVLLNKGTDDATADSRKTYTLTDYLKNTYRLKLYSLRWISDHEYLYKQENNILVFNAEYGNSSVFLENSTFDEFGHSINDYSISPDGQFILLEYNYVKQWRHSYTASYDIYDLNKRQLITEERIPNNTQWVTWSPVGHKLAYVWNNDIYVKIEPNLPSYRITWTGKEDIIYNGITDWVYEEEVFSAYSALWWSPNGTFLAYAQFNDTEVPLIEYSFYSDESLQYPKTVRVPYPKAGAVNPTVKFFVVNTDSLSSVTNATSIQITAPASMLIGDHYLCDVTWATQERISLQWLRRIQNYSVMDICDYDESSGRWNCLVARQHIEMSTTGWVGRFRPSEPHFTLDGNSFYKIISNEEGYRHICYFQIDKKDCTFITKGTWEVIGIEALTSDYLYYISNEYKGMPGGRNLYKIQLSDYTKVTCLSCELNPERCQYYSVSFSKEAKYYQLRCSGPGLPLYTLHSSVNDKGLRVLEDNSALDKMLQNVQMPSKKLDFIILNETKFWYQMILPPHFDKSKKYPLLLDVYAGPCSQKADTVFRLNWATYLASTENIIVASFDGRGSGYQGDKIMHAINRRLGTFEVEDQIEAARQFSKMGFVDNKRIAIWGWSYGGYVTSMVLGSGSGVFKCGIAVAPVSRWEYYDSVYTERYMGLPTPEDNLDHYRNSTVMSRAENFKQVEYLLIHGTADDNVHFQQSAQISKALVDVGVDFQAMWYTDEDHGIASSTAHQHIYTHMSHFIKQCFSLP
Protocol: as §1

[1] = Biodistribution of representative compounds (Example 13), % ID/g in tissues of tumor-bearing mice; format: in vivo, mouse; settings: sub-heading prints [^18F]JHU1221785
[2] = 60 min + Blocker cold FAPI-04 10 nmole

Chain of FAP (Q12884 whole entry): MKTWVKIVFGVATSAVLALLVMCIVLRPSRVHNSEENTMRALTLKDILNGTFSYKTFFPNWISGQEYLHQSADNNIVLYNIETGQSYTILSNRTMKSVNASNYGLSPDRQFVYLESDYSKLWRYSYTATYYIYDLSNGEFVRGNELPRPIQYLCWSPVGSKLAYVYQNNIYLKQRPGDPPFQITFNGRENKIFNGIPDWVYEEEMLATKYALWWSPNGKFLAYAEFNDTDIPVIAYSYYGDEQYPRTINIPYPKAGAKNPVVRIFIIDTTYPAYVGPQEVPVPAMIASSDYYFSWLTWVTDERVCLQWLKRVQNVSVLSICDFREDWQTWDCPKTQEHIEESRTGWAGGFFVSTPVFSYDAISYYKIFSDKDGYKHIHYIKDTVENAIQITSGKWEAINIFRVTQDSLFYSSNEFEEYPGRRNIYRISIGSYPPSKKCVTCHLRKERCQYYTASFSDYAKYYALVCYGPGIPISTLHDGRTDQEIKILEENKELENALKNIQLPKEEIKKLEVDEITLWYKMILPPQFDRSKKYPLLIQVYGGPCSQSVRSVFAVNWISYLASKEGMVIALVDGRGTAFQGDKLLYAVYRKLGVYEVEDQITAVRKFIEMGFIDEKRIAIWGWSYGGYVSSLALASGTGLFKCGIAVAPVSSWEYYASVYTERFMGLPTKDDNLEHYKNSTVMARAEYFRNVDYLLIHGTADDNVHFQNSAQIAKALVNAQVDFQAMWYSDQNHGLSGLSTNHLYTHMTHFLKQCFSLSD

## N#C[C@@H]1CCCN1C(=O)CNC(=O)c1ccnc2ccc(OCCCNC(=O)CNC(=O)[C@H](CCCCNC(=O)c3ccc(F)nc3)NC(=O)CN3CCN(CC(=O)O)CCN(CC(=O)O)CCN(CC(=O)O)CC3)cc12 [JHU1221804]
FAP
  IC50: 1.01 nM
  Ki: 0.2 nM
PREP
  IC50: 1710 nM
DPPIV
  IC50: 8310 nM

## N#C[C@@H]1CC(F)(F)CN1C(=O)CNC(=O)c1ccnc2ccc(OCCCN3CCN(C(=O)CN4CCN(CC(=O)O)CCN(CC(=O)O)CCN(CC(=O)O)CC4)CC3)cc12 [FAPI-04, reference compound]
DPPIV
  Ki: 800 nM

## N#C[C@@H]1CCCN1C(=O)CNC(=O)c1ccnc2c(F)cccc12 [JHU1220502]
FAP
  IC50: 5.04 nM
  Ki: 1.01 nM
PREP
  IC50: 84.5 nM
DPPIV
  IC50: > 20000 nM

## N#CC1CCCN1C(=O)CNC(=O)c1ccnc2ccc(OCCCNCC([18F])C(O)C(O)C(O)CO)cc12 (centres unmarked) [[^18F]FAP-FDG]
[1]; [2]
  % ID/g Bladder (individual mouse): 1.45 % ID/g and 2.74 % ID/g
  % ID/g Blood (individual mouse): 0.20 % ID/g and 0.25 % ID/g
  % ID/g Brain (individual mouse): 4.18 % ID/g and 4.67 % ID/g
  % ID/g Fat (individual mouse): 0.63 % ID/g and 0.26 % ID/g
  % ID/g Femur (individual mouse): 1.33 % ID/g and 1.67 % ID/g
  % ID/g Heart (individual mouse): 11.97 % ID/g and 17.79 % ID/g
  % ID/g Kidney (individual mouse): 0.95 % ID/g and 0.87 % ID/g
  % ID/g Large intestine (individual mouse): 3.51 % ID/g and 3.22 % ID/g
  % ID/g Liver (individual mouse): 0.38 % ID/g and 0.55 % ID/g
  % ID/g Lung (individual mouse): 2.25 % ID/g and 2.08 % ID/g
  % ID/g Mean Bladder: 2.10 % ID/g
  % ID/g Mean Blood: 0.22 % ID/g
  % ID/g Mean Brain: 4.43 % ID/g
  % ID/g Mean Fat: 0.44 % ID/g
  % ID/g Mean Femur: 1.50 % ID/g
  % ID/g Mean Heart: 14.88 % ID/g
  % ID/g Mean Kidney: 0.91 % ID/g
  % ID/g Mean Large intestine: 3.37 % ID/g
  % ID/g Mean Liver: 0.47 % ID/g
  % ID/g Mean Lung: 2.17 % ID/g
  % ID/g Mean Muscle: 6.73 % ID/g
  % ID/g Mean Pancreas: 1.01 % ID/g
  % ID/g Mean Salivary gland: 3.76 % ID/g
  % ID/g Mean Small intestine: 0.77 % ID/g
  % ID/g Mean Spleen: 1.30 % ID/g
  % ID/g Mean Stomach: 2.76 % ID/g
  % ID/g Mean Tumor: 3.65 % ID/g
  % ID/g Muscle (individual mouse): 6.83 % ID/g and 6.64 % ID/g
  % ID/g Pancreas (individual mouse): 1.20 % ID/g and 0.82 % ID/g
  % ID/g Salivery gland (individual mouse): 5.34 % ID/g and 2.19 % ID/g
  % ID/g Small intestine (individual mouse): 0.61 % ID/g and 0.92 % ID/g
  % ID/g Spleen (individual mouse): 0.92 % ID/g and 1.68 % ID/g
  % ID/g Stomach (individual mouse): 3.50 % ID/g and 2.02 % ID/g
  % ID/g Tumor (individual mouse): 3.33 % ID/g and 3.97 % ID/g
[1]; 60 min, 20 μCi per mouse
  % ID/g Bladder (individual mouse): 2.55 % ID/g and 2.49 % ID/g
  % ID/g Blood (individual mouse): 0.21 % ID/g and 0.25 % ID/g
  % ID/g Brain (individual mouse): 5.31 % ID/g and 6.18 % ID/g
  % ID/g Fat (individual mouse): 3.29 % ID/g and 1.13 % ID/g
  % ID/g Femur (individual mouse): 2.28 % ID/g and 2.68 % ID/g
  % ID/g Heart (individual mouse): 23.96 % ID/g and 16.00 % ID/g
  % ID/g Kidney (individual mouse): 1.13 % ID/g and 2.01 % ID/g
  % ID/g Large intestine (individual mouse): 4.03 % ID/g and 4.32 % ID/g
  % ID/g Liver (individual mouse): 0.55 % ID/g and 0.70 % ID/g
  % ID/g Lung (individual mouse): 2.15 % ID/g and 2.85 % ID/g
  % ID/g Mean Bladder: 2.52 % ID/g
  % ID/g Mean Blood: 0.23 % ID/g
  % ID/g Mean Brain: 5.74 % ID/g
  % ID/g Mean Fat: 2.21 % ID/g
  % ID/g Mean Femur: 2.48 % ID/g
  % ID/g Mean Heart: 19.98 % ID/g
  % ID/g Mean Kidney: 1.57 % ID/g
  % ID/g Mean Large intestine: 4.17 % ID/g
  % ID/g Mean Liver: 0.63 % ID/g
  % ID/g Mean Lung: 2.50 % ID/g
  % ID/g Mean Muscle: 6.18 % ID/g
  % ID/g Mean Pancreas: 1.33 % ID/g
  % ID/g Mean Salivary gland: 5.31 % ID/g
  % ID/g Mean Small intestine: 1.06 % ID/g
  % ID/g Mean Spleen: 1.29 % ID/g
  % ID/g Mean Stomach: 2.72 % ID/g
  % ID/g Mean Tumor: 5.02 % ID/g
  % ID/g Muscle (individual mouse): 7.65 % ID/g and 4.71 % ID/g
  % ID/g Pancreas (individual mouse): 1.25 % ID/g and 1.42 % ID/g
  % ID/g Salivery gland (individual mouse): 6.70 % ID/g and 3.91 % ID/g
  % ID/g Small intestine (individual mouse): 1.21 % ID/g and 0.91 % ID/g
  % ID/g Spleen (individual mouse): 1.20 % ID/g and 1.38 % ID/g
  % ID/g Stomach (individual mouse): 2.04 % ID/g and 3.39 % ID/g
  % ID/g Tumor (individual mouse): 4.12 % ID/g and 5.91 % ID/g

Reference: patent publication US20240382629A1, “HETEROBIVALENT AND HOMOBIVALENT AGENTS TARGETING FIBROBLAST ACTIVATION PROTEIN ALPHA AND/OR PROSTATE-SPECIFIC MEMBRANE ANTIGEN” (The Johns Hopkins University, priority 2021, published 2024)
